Measurements published in patent US10500224B2, “Mutual prodrug comprising short chain fatty acids and zebularine or 1'-cyano-cytarabine for cancer treatment” (KAINOS MEDICINE, INC., priority 2013, dated 2019).

Key:
[1] = Pharmacokinetics of Compounds 16, 22 and 23; assay type: in vivo, SCID/mice; settings: SCID, mouse, plasma
Method: Pharmacokinetics of Compound 16 (Comparative example) prepared in step 3 of Example 2, and mutual prodrugs of Compounds 22 and 23 prepared in Example 3 and 4, respectively, were evaluated in SCID/mice following oral (PO) and intravenous (IV) administration according to the route/dose as shown in Table 4.
Blood samples were collected over 24 hrs, and plasma samples were prepared. Plasma concentrations of the test compounds were analyzed by LC/MS/MS. The maximum plasma concentration (Cmax), exposure (AUC), bioavailability (F %), half-life (T1/2), clearance (CL), volume of distribution (Vss), time when the maximal serum concentration of compound is achieved (Tmax) and mean residence time (MRT) were calculated as were in Test Example 3.

MOLT-4 xenograft = assay: Tumor growth inhibition of Compounds 22 and 23 in MOLT-4 xenograft; assay type: in vivo, mice
[2] = test system: MOLT-4 (human acute lymphoblastic leukemia); assay: Anti-proliferative activity test (CellTiter-Glo), MOLT-4; assay type: cell-based; settings: MOLT-4, hematological
Method: (§1) Six hundred cells in 90 media were plated per well in duplicates in a 96-well plate. Cells were incubated in a humidified incubator at 37° C. with 5% CO2 during the assay. DMSO was added to the test compounds with the final DMSO concentration being 0.1% [v/v] of the culture. 100 μl of CellTiter-Glo® was added to the equal volume of cultured cells to read luminescence in EnVision Multi Label Reader.

[3] = test system: MV-4-11 (human biphenotypic B myelomonocytic leukemia); assay: Anti-proliferative activity test (CellTiter-Glo), MV-4-11; assay type: cell-based; settings: MV-4-11, hematological
Method: as §1

[4] = test system: HL-60 (human acute promyelocytic leukemia); assay: Anti-proliferative activity test (CellTiter-Glo), HL-60; assay type: cell-based; settings: HL-60, hematological
Method: as §1

[5] = test system: Hep G2 (human hepatocellular carcinoma); assay: Anti-proliferative activity test (CellTiter-Glo), Hep G2; assay type: cell-based; settings: Hep G2, liver cancer
Method: as §1

[6] = test system: HCT 116 (human colorectal carcinoma); assay: Anti-proliferative activity test (CellTiter-Glo), HCT 116; assay type: cell-based; settings: HCT 116, colon cancer
Method: as §1

[7] = Mouse pharmacokinetics of Compound 12; assay type: in vivo, ICR mice; settings: ICR, plasma, 10 mg/kg
Method: (§2) Pharmacokinetics of Compound 12 prepared in Example 1 were evaluated in ICR mice and SD rats following intravenous (IV) administration at 10 mg/kg and peroral (PO) administration at 10 mg/kg dose level, respectively.
(§3) For serum compound analysis, blood samples were collected by cardiac puncture over 24 hr time course. 20 μl of spiked plasma was added into 96 well plate, adding ten volumes of internal standard (IS) in acetonitrile (ACN) to precipitate proteins, mixed fully, centrifuged for 10 min at 4,000 rpm. 150 μl of supernatant was transferred to another pre-labeled 96 well plate, mixed with 150 μl of water, then injected 5 μl or 10 μl into the liquid chromatography-mass spectrometry (LC-MS) system under the following conditions:
(§4) Column: API-4000+Waters UPLC (TCLM08);
(§5) Lower limit of quantification (LLOQ) was at 1 ng/mL. Pharmacokinetic parameters of half-life (T1/2), clearance (CL), maximum plasma concentration (Cmax), time when the maximal serum concentration of compound is achieved (Tmax) and bioavailability (F %), exposure (AUC) and volume of distribution (Vss) of the compound were calculated using Phoenix WinNonlin 6.3 (non-compartmental model).

[8] = Rat pharmacokinetics of Compound 12; assay type: in vivo, SD rats; settings: SD, plasma, 10 mg/kg
Method: as §2, §3, §4, §5

[9] = test system: HL-60 human leukemia xenograft; assay: Efficacy of PO-administered Compound 12 in HL-60 human leukemia xenograft; assay type: in vivo, NOD/SCID female mice; settings: 5 d ON/2 d Off × 2
Method: Tumor growth inhibition (TGI) activities of IP-administered Ara-C, and PO-administered Compound 12 were compared in HL-60 human leukemia xenografts.
NOD/SCID female mice of 6-8 weeks age and weighing approximately 18 to 22 g, were used for tumor inoculation. Each mouse was inoculated subcutaneously at the right flank with HL-60 cancer cells (1×10^7 cells) in mixture of 100 μl of PBS and 100 μl of Matrigel™ for tumor development. Eight mice were used for each group (n=8/group). The amounts of treated compounds are represented in milligram (mg) of compound per kilogram (kg) of animal body weight (mg/kg, mpk). Administration route of the test compound was either intraperitoneal (IP) injection or peros (PO, oral) injection. […] The overall administration schedule was 2 cycles of treatment for 5 days (5 d ON), followed by 2 days of non-treatment (2 d OFF). Tumor sizes were measured using a caliper, once every 4 days, and the tumor volume was expressed in mm^3 using Equation 1: V=0.5a×b^2 [Equation 1]
Wherein, a and b are the long and short diameters of the tumor, respectively.
The tumor volume (mm^3) and body weight (g) results of the three groups are shown in FIGS. 4A and 4B, respectively.

[10] = test system: HL-60 human leukemia xenograft; assay: Tumor growth inhibition of IP-administered Compound 12 in HL-60 human leukemia xenograft; assay type: in vivo, NOD/SCID female mice
Method: Tumor growth inhibition activities of IP-administered Ara-C and Compound 12 were compared in HL-60 human leukemia xenograft.
NOD/SCID female mice of 6-8 weeks age and weighing approximately 18 to 22 g, were used for tumor inoculation. Each mouse was inoculated subcutaneously at the right flank with HL-60 tumor cells (1×10^7 cells) in mixture of 100 μl of PBS and 100 of μl Matrigel™ for tumor development. Eight mice were used for each group (n=8/group). The amounts of treated compounds are represented in milligram (mg) of compound per kilogram (kg) of animal body weight (mg/kg, mpk). Administration route of all test compounds was through IP injection. […] The overall administration schedule was 2 cycles of compound treatment for 5 days, followed by 2 days of non-treatment. Tumor sizes were measured using a caliper, once every 4 days, and the tumor volume was expressed in mm^3 using Equation 1.
The tumor volume (mm^3) and body weight (g) results of five groups are shown in FIGS. 5A and 5B, respectively.

[11] = target: T1, recombinant human cytidine deaminase (CDA) (Homo sapiens, UniProt P32320); assay: Cytidine deaminase (CDA) assay; assay type: biochemical
T1 construct: His6; host or cells: E. coli

[12] = 150 mpk, 5 d ON/2 d OFF × 2, FIG. 6

T1 sequence (P32320 whole entry): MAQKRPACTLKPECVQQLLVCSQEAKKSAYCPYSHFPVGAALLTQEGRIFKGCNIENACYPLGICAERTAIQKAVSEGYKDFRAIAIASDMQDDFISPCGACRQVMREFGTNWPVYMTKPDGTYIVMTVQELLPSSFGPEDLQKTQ

Row | AUC ([1]; 75 mg/kg, PO/75 mpk) | Cmax ([1]; 75 mg/kg, PO/75 mpk) | AUC ([1]; 150 mg/kg, PO/150 mpk) | Cmax ([1]; 150 mg/kg, PO/150 mpk) | MRT ([1]; 150 mg/kg, PO/150 mpk) | Tmax ([1]; 150 mg/kg, PO/150 mpk) | bioavailability ([1]; 150 mg/kg, PO/150 mpk) | half-life ([1]; 150 mg/kg, PO/150 mpk) | IC50 ([2]; Homo sapiens) | IC50 ([3]; Homo sapiens, MV4-11) | IC50 ([4]; Homo sapiens) | IC50 ([5]; Homo sapiens, HepG2) | IC50 ([6]; Homo sapiens) | SMILES | TGI (MOLT-4 xenograft; [12]) | TGI (%) ([10]; 60 mpk) | other results
1 | 500 ng·h/mL | 0.88 µM | 1100 ng·h/mL | 4.4 µM | 1.2 h | 0.5 h | 2.7% | 1.6 h | – | – | – | – | – | CCCC(=O)OC[C@H]1O[C@@H](n2cccnc2=O)[C@H](OC(=O)CCC)[C@@H]1OC(=O)CCC [Compound 22, (2R,3R,4R,5R)-2-((butyryloxy)methyl)-5-(2-oxopyrimidin-1(2H)-yl)tetrahydrofuran-3,4-diyl Dibutyrate] | 40% | – | –
2 | 1800 ng·h/mL | 5.3 µM | 6500 ng·h/mL | 30.7 µM | 1.3 h | 0.5 h | 16% | 4.9 h | – | – | – | – | – | CC(C)C(=O)OC[C@H]1O[C@@H](n2cccnc2=O)[C@H](OC(=O)C(C)C)[C@@H]1OC(=O)C(C)C [Compound 23, (2R,3R,4R,5R)-2-((isobutyryloxy)methyl)-5-(2-oxopyrimidin-1(2H)-yl)tetrahydrofuran-3,4-diyl bis(2-methylpropanoate)] | 40% | – | –
3 | – | – | – | – | – | – | – | – | – | – | – | – | – | O=c1ncccn1[C@@H]1O[C@H](CO)[C@@H](O)[C@H]1O [Compound 16, 1-((2R,3R,4S,5R)-3,4-dihydroxy-5-(hydroxymethyl)tetrahydrofuran-2-yl)pyrimidin-2(1H)-one, reference compound] | – | – | AUC ([1]; 100 mg/kg, IV/100 mpk): 54600 ng·h/mL; clearance ([1]; 100 mg/kg, IV/100 mpk): 30.2 mL/min/kg; half-life ([1]; 100 mg/kg, IV/100 mpk): 2.03 h; Vd ([1]; 100 mg/kg, IV/100 mpk, read-out: Vss): 0.91 L/kg; AUC ([1]; 500 mg/kg, PO/500 mpk): 20900 ng·h/mL; Cmax ([1]; 500 mg/kg, PO/500 mpk): 22.3 µM; bioavailability ([1]; 500 mg/kg, PO/500 mpk): 8.4%; half-life ([1]; 500 mg/kg, PO/500 mpk): 2.44 h; TGI (MOLT-4 xenograft; zebularine, dose not stated, FIG. 6): 10%
4 | – | – | – | – | – | – | – | – | 1.14 µM | 0.13 µM | 5.06 µM | 0.56 µM | 0.22 µM | CCCC(=O)OC[C@H]1O[C@@](C#N)(n2ccc(N)nc2=O)[C@@H](O)[C@@H]1O [Compound 12, ((2R,3S,4S,5R)-5-(4-amino-2-oxopyrimidin-1(2H)-yl)-5-cyano-3,4-dihydroxytetrahydrofuran-2-yl)methyl Butyrate] | – | 59% | clearance ([7]; IV): 21.6 mL/min/kg; half-life ([7]; IV): 3.1 h; bioavailability ([7]; PO): 62%; half-life ([7]; PO): 4.6 h; clearance ([8]; IV): 11.4 mL/min/kg; half-life ([8]; IV): 3.1 h; bioavailability ([8]; PO): 48.8%; half-life ([8]; PO): 2.5 h; % BW change ([9]; 60 mpk, PO): −0.9%; % TGI ([9]; 60 mpk, PO): 50%; TGI (%) ([10]; 20 mpk): 36%; TGI (%) ([10]; 40 mpk): 46%
5 | – | – | – | – | – | – | – | – | – | – | – | – | – | N#C[C@@]1(n2ccc(N)nc2=O)O[C@H](CO)[C@@H](O)[C@@H]1O [Compound 11] | – | – | susceptibility to deamination by CDA [11]: resistant to deamination by CDA; Relative rxn velocity ([11]; 0.01 mM substrate, 25° C., OD282, relative to cytidine): <0.01; IC50 [2]: 1.06 µM; IC50 [3]: 5 µM; IC50 [4]: 2.41 µM; IC50 [5]: 6 µM; IC50 [6]: 0.96 µM
6 | – | – | – | – | – | – | – | – | 0.02 µM | 3.1 µM | 0.63 µM | 1.91 µM | 0.29 µM | Nc1ccn([C@@H]2O[C@H](CO)[C@@H](O)[C@@H]2O)c(=O)n1 [Ara-C, cytarabine] | – | 60% | % BW change ([9]; 40 mpk, IP): −6.2%; % TGI ([9]; 40 mpk, IP): 46%
